Test results reported in PubChem BioAssay (NCI).
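Five concentrations, 48 hours, 96-well plates. GI50 is the concentration that inhibits growth by half. TGI is the concentration that stops growth completely.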

Key:
Assay in all cases: NCI tumour cell line growth inhibition, 48 h
SR leukemia = tested on: SR leukemia
EKVX NSCLC = tested on: EKVX NSCLC
SN12C renal = tested on: SN12C renal
MALME-3M melanoma = tested on: MALME-3M melanoma
SK-OV-3 ovarian = tested on: SK-OV-3 ovarian
KM20L2 colon = tested on: KM20L2 colon
SK-MEL-28 melanoma = tested on: SK-MEL-28 melanoma
HOP-62 NSCLC = tested on: HOP-62 NSCLC
NCI-H226 lung = tested on: NCI-H226 lung
DMS 273 small cell lung = tested on: DMS 273 small cell lung

Row | SMILES | TGI (SR leukemia) [µM] | TGI (EKVX NSCLC) [µM] | TGI (SN12C renal) [µM] | TGI (MALME-3M melanoma) [µM] | TGI (SK-OV-3 ovarian) [µM] | TGI (KM20L2 colon) [µM] | TGI (SK-MEL-28 melanoma) [µM] | TGI (HOP-62 NSCLC) [µM] | TGI (NCI-H226 lung) [µM] | TGI (DMS 273 small cell lung) [µM] | GI50 (SR leukemia) [µM] | GI50 (NCI-H226 lung) [µM] | GI50 (EKVX NSCLC) [µM] | GI50 (SN12C renal) [µM] | GI50 (MALME-3M melanoma) [µM] | GI50 (SK-OV-3 ovarian) [µM] | GI50 (SK-MEL-28 melanoma) [µM] | GI50 (HOP-62 NSCLC) [µM]
1 | COC1CC(OC)C(O)C(CO)O1 (centres undefined) | > 100 | > 100 | > 100 | > 100 | > 100 | > 100 | > 100 | > 100 |  |  |  |  |  |  |  |  |  | 
2 | C=C[C@H]1C=Cc2c(OC)cccc2[C@@H]1COP1(=S)NC(C)C(c2ccccc2)O1 (some centres undefined) |  | > 100 | > 100 |  | > 100 | > 100 | > 100 | > 100 | > 100 | > 100 |  |  |  |  |  |  |  | 
3 | CCN1CCN(c2ccc(Nc3ncc4ccc5ncn(C(C)C)c5c4n3)nc2)CC1 |  | 0.563 | 17.9 | 1.69 | 0.847 |  | 1.45 | 3.22 | 2.67 |  | 0.0402 | 0.148 | 0.131 | 0.139 | 0.134 | 0.271 | 0.2 | 0.0923
4 | Cc1nc2sc(C(=O)Nc3cccc(Br)c3)c(N)c2cc1C(O)c1ccccc1 (centres undefined) | > 37.3 | 21 | 13.3 | 22.3 | 19.1 |  | 23.7 | 32.4 | 24.3 |  | 0.301 | 2 | 1.2 | 0.894 | 0.761 | 1.76 | 4.61 | 1.57
5 | Nc1nc(-c2ccc(Cl)cc2)cc(-c2ccccc2)c1-c1nc2ccccc2o1 | 8.97 | 28 | 9.29 | 33.4 | 32.4 |  | 34 | 7.47 | 31.3 |  | 3.37 | 15.1 | 12.4 | 3.05 | 10.3 | 15.4 | 15.2 | 2.92
6 | COc1cc(C)c(NC(=O)CN(C)C)cc1Nc1nc(Nc2cccc(F)c2C(N)=O)c2cc[nH]c2n1 | 2.89 | 12.5 | 8.23 | 7.47 | 6.29 |  | 9.62 | 5.54 | 7.24 |  | 0.00977 | 2.6 | 0.937 | 3.86 | 1.91 | 2.67 | 2.68 | 1.24
7 | Nc1nc(-c2ccccc2)cc(-c2ccc(Cl)cc2)c1-c1nc2ccccc2o1 | 8.11 | 27.7 | 20 | 35.3 | 30.7 |  | 32.6 | 37.8 | 29.2 |  | 3.08 | 14.5 | 14 | 7.56 | 19.2 | 15.9 | 17 | 22.4
8 | Nc1ccc(-c2ccc(-c3nc4cc(Cl)c(Cl)cc4[nH]3)cc2)cc1 | 45.2 | > 100 | > 66.7 | > 63.4 | > 100 |  | > 100 | > 50.5 | > 41.7 |  | 0.181 | 4.07 | 11.6 | 17.9 | 8.02 | > 79.9 | 13.4 | 11.7
9 | Cc1ccccc1NC(=O)c1ccc([N+](=O)[O-])cc1 |  | > 100 | > 100 | > 100 | > 100 | > 100 | > 100 | > 100 | > 100 | > 100 |  |  |  |  |  |  |  | 
10 | Cn1c(=O)c2[nH]c(CCCCc3nc4c([nH]3)c(=O)n(C)c(=S)n4C)nc2n(C)c1=S | > 100 | > 100 | > 100 | > 100 | > 100 |  | > 100 | > 100 | > 100 |  |  |  |  |  |  |  |  | 
11 | C=C(C)[C@@H]1CC[C@]2(C(N)=O)CC[C@]3(C)[C@H](CC[C@@H]4[C@@]5(C)C/C(=C/c6cccnc6)[C@H](O)C(C)(C)[C@@H]5CC[C@]43C)[C@@H]12 | > 100 | > 100 | > 100 | > 100 | > 100 |  | > 100 | > 100 | > 100 |  | 4.31 | 4.98 | 4.03 | 4.82 | 4.91 | 5.26 | 6.14 | 9.52
12 | CCOC(=O)C(C(=O)OCC)=c1sc(=C(C(=O)OCC)C(=O)OCC)s1 |  | > 100 | > 100 | > 100 | > 100 | > 100 | > 100 | > 100 |  | > 100 |  |  |  |  |  |  |  | 
13 | Cc1c(-c2nnc(-c3cc(Cl)c(Cl)cc3Cl)o2)nnn1-c1ccnc2c(C(F)(F)F)cccc12 | 47.5 | 73.9 | > 100 | 51.1 | 61.1 |  | 75.3 | 47.7 | 91.7 |  | 20.6 | 28.7 | 23.7 | 31.4 | 19.2 | 24.5 | 26.5 | 20.5
14 | FC(F)(F)c1cccc(C2SCc3nc4ccccc4n32)c1 (centres undefined) | > 100 | > 100 | > 100 | > 100 | 89.1 |  | > 100 |  | > 100 | > 100 |  |  |  |  |  |  |  | 
15 | Fc1cccc(-c2[nH]nc3nc(Nc4cccnc4)sc23)c1 | > 100 | > 100 | > 100 | > 100 | > 100 |  | > 100 | > 100 | > 100 |  | 0.979 | > 100 | 6.75 | > 100 | 39.8 | > 100 | 17.5 | > 100
16 | CCN(CC)CC[n+]1cc2cc(OC)c(OC)cc2c2ccc3cc4c(cc3c21)OCO4 | 2.12 | 4.04 | 1.21 | 2.5 | 2.08 |  | 2.93 | 1.93 | 3.24 |  | 0.248 | 1.35 | 0.967 | 0.309 | 1.1 | 0.52 | 1.48 | 0.354
17 | CC(C)(C)c1cc(-c2nc3c(F)c(F)c(F)c(F)c3[nH]2)cc(C(C)(C)C)c1O | > 100 | > 100 | > 100 | > 100 | > 100 |  | > 100 | > 100 | > 100 |  | 38 | > 100 | > 100 | > 100 | > 100 | > 100 | > 100 | > 100
